Patent EP4692071A1, “PHOTOCHROMIC COMPOUND, NAPHTHOL DERIVATIVE, CURABLE COMPOSITION, OPTICAL ARTICLE, LENS, AND EYEGLASS” (TOKUYAMA CORPORATION, priority 2023, dated 2024)

Key:
Format in all cases: physicochemical
[1] = Maximum absorption wavelength (λmax) after color development, spectrophotometer MCPD3000; details: for Maximum absorption wavelength: after color development
Protocol: (§1) • [1] Maximum Absorption Wavelength (λmax): The maximum absorption wavelength after color development, measured using a spectrophotometer (instantaneous multichannel photodetector MCPD3000) manufactured by Otsuka Electronics Co., Ltd. was used as an indicator for the color tone during the color development. • [2] 23°C Color Optical Density (A23): A difference between an absorbancy measured after light irradiation at 23°C for 240 seconds {ε(240)} and an absorbancy without light irradiation ε(0) at the maximum absorption wavelength was used as an indicator for the color optical density. […] 35°C Color Optical Density (A35): A difference between an absorbancy measured after light irradiation at 35°C for 240 seconds {ε(240)} and an absorbancy without light irradiation ε(0) at the first and second absorption wavelengths was used as an indicator for the color optical density. […] 23°C color fading half-life [τ1/2 (sec.)]: A time required for the absorbancy of the sample at the maximum absorption wavelength to decrease to 1/2 of {ε(240)-ε(0)} when the light irradiation is terminated after the light irradiation at 23°C for 240 seconds, was used as an indicator for the color fading speed. The shorter this time, the higher the color fading speed. • [6] Residual rate (A90/A0×100): The obtained photochromic plastic lens was subjected to accelerated deterioration using a xenon weather meter X25 manufactured by Suga Test Instruments Co., Ltd. for 90 hours. Subsequently, the color optical density was evaluated before and after the test, then a color optical density before the test (A0) and a color optical density after the test (A90) were measured, and a ratio (A90/A0) was defined as a residual rate. The residual rate was used as an indicator for a color developing durability. The higher the residual rate, the higher the color developing durability.

[2] = 35°C color optical density (A35): absorbancy difference ε(240)-ε(0) after 240 s light irradiation at 35°C; details: 240 s irradiation; for 35°C color optical density (-): comparative compounds
Protocol: as §1

[3] = 23°C color optical density (A23): absorbancy difference ε(240)-ε(0) after 240 s light irradiation at 23°C; details: 240 s irradiation; for 23°C color optical density (-): comparative compounds
Protocol: as §1

[4] = High-temperature color development rate (A35/A23×100), temperature dependency
Protocol: as §1

[5] = Residual rate (A90/A0×100) after 90 h accelerated deterioration in xenon weather meter X25, color developing durability; details: for Residual rate (%): xenon weather meter 90 hours; for Residual rate: after 90 h accelerated deterioration
Protocol: as §1

[6] = photochromic laminate by coating method, 40 µm photochromic layer on thiourethane lens, 0.25 mmol compound per 100 g monomers
[7] = photochromic laminate by coating method
[8] = photochromic laminate by coating method, at the maximum absorption wavelength
[9] = photochromic cured product by kneading method, 1 mm thick thiourethane, 0.106 mmol per 100 g monomers
[10] = cured product by kneading method, 1 mm
[11] = binder sheet (binder method), measured at 451 nm absorption maximum
[12] = binder sheet (binder method), measured at 565 nm absorption maximum
[13] = photochromic laminate by coating method, at 451 nm absorption maximum
[14] = photochromic laminate by coating method, at 566 nm absorption maximum
[15] = binder sheet (binder method), absorption peak at 474 nm
[16] = binder sheet (binder method), absorption peak at 566 nm
[17] = photochromic cured product, thickness 1 mm (kneading method), absorption band at 476 nm
[18] = photochromic cured product, thickness 1 mm (kneading method), absorption band at 573 nm
[19] = photochromic laminate prepared by coating method, absorption band at 474 nm
[20] = photochromic laminate prepared by coating method, absorption band at 567 nm
[21] = photochromic laminate by coating method, absorption band at 474 nm
[22] = photochromic laminate by coating method, absorption band at 567 nm
[23] = binder sheet (binder method), at 474 nm absorption maximum
[24] = binder sheet (binder method), at 566 nm absorption maximum

With `CCCOc1ccc(C2(c3ccc(OCCC)cc3)C=Cc3c4c(c5cc(N6CCOc7cc(C)ccc76)c(OC)cc5c3O2)-c2ccc(-c3ccc(C(F)(F)F)cc3)cc2C4(CCOC)CCOC)cc1` [Example 48 Formula (106)] as the compound, how does the “Maximum absorption wavelength (nm)” value ([1]; binder sheet (binder method), urethaneurea resin photochromic layer between polycarbonate sheets, 0.25 mmol per 100 parts by mass resin) read?
Its value is 513 nm.

And the “Maximum absorption wavelength (nm)” value [1, 6]?
The value was 513 nm.

And the “A35 (-)” value ([2]; binder sheet (binder method))?
The value was 0.90 -.

And the “A35 (-)” value [2, 7]?
Its value is 0.88 -.

What about the “A23 (-)” value ([3]; binder sheet (binder method)) of the same compound?
Its value is 1.39 -.

And the “A23 (-)” value [3, 8]?
Its value is 1.36 -.

What about the “A35/A23 *100 (%)” value ([4]; binder sheet (binder method)) of the same compound?
Its value is 65%.

And the “A35/A23 *100 (%)” value [4, 7]?
Its value is 65%.

What about the “Residual rate (%)” value ([5]; binder sheet (binder method)) of the same compound?
Its value is 93%.

And the “Residual rate (%)” value [5, 7]?
Its value is 77%.

Which results are given for `CCCCCCOc1ccc(C2(c3ccc(OC)cc3)C=Cc3c4c(c5cc(N(c6ccc(C)cc6)c6ccc(OC)cc6)c(OC)cc5c3O2)-c2ccccc2C42CC(C)(C)CC(C)(C)C2)cc1` (stereo not drawn) [Example 15 Formula (75)]?
Maximum absorption wavelength (nm) [1, 9]: 527 nm; Maximum absorption wavelength (nm) [1, 6]: 523 nm; A35 (-) [2, 10]: 0.76 -; A35 (-) [2, 7]: 0.74 -; A23 (-) [3, 10]: 1.22 -; A23 (-) [3, 8]: 1.20 -; A35/A23 *100 (%) [4, 10]: 63%; A35/A23 *100 (%) [4, 7]: 62%; Residual rate (%) [5, 10]: 81%; Residual rate (%) [5, 7]: 75%

What does the source list for `CCC1(CC)CCC2(CC1)c1ccccc1-c1c2c2c(c3cc(OC)c(N(C)c4ccc(C(F)(F)F)cc4)cc13)OC(c1ccc(C)cc1)(c1ccc(OC)cc1)C=C2` (stereo not drawn) [Example 9 Formula (57)]?
Maximum absorption wavelength (nm) ([1]; binder sheet (binder method), urethaneurea resin photochromic layer between polycarbonate sheets, 0.25 mmol per 100 parts by mass resin, measured at 451 nm absorption maximum): 451 nm; Maximum absorption wavelength (nm) ([1]; binder sheet (binder method), urethaneurea resin photochromic layer between polycarbonate sheets, 0.25 mmol per 100 parts by mass resin, measured at 565 nm absorption maximum): 565 nm; Maximum absorption wavelength (nm) ([1]; photochromic laminate by coating method, 40 µm photochromic layer on thiourethane lens, 0.25 mmol compound per 100 g monomers, at 451 nm absorption maximum): 451 nm; Maximum absorption wavelength (nm) ([1]; photochromic laminate by coating method, 40 µm photochromic layer on thiourethane lens, 0.25 mmol compound per 100 g monomers, at 566 nm absorption maximum): 566 nm; A35 (-) [2, 11]: 0.49 -; A35 (-) [2, 12]: 0.56 -; A35 (-) [2, 13]: 0.47 -; A35 (-) [2, 14]: 0.55 -; A23 (-) [3, 11]: 0.75 -; A23 (-) [3, 12]: 0.88 -; A23 (-) ([3]; photochromic laminate by coating method, at the maximum absorption wavelength, at 451 nm absorption maximum): 0.73 -; A23 (-) ([3]; photochromic laminate by coating method, at the maximum absorption wavelength, at 566 nm absorption maximum): 0.86 -; A35/A23 *100 (%) [4, 11]: 66%; A35/A23 *100 (%) [4, 12]: 65%; A35/A23 *100 (%) [4, 7]: 64%; Residual rate (%) [5, 11]: 95%; Residual rate (%) [5, 12]: 96%; Residual rate (%) [5, 13]: 83%; Residual rate (%) [5, 14]: 84%

Which results are given for `COc1ccc(C2(c3ccc(N4CCOCC4)cc3)C=Cc3c4c(c5cc(N6CCCc7ccccc76)c(OC)cc5c3O2)-c2ccc(C)cc2C4(CCCC(F)(F)F)CCCC(F)(F)F)cc1` (stereo not drawn) [Example 8 Formula (54)]?
Maximum absorption wavelength (nm) [1, 9]: 549 nm; Maximum absorption wavelength (nm) [1, 6]: 545 nm; A35 (-) [2, 10]: 0.79 -; A35 (-) [2, 7]: 0.75 -; A23 (-) [3, 10]: 1.20 -; A23 (-) [3, 8]: 1.18 -; A35/A23 *100 (%) [4, 10]: 66%; A35/A23 *100 (%) [4, 7]: 64%; Residual rate (%) [5, 10]: 80%; Residual rate (%) [5, 7]: 75%

Which results are given for `COc1ccc(C2(c3ccc(OC)cc3)C=Cc3c4c(c5cc(N6CCOCC6)c(OC)cc5c3O2)-c2ccccc2C4(C)C)cc1` [Formula (A), reference compound]?
Maximum absorption wavelength (nm) ([1]; binder sheet (binder method), urethaneurea resin photochromic layer between polycarbonate sheets, 0.25 mmol per 100 parts by mass resin, at 474 nm absorption maximum): 474 nm; Maximum absorption wavelength (nm) ([1]; binder sheet (binder method), urethaneurea resin photochromic layer between polycarbonate sheets, 0.25 mmol per 100 parts by mass resin, at 566 nm absorption maximum): 566 nm; Maximum absorption wavelength [1, 15]: 474 nm; Maximum absorption wavelength [1, 16]: 566 nm; Maximum absorption wavelength (nm) ([1]; photochromic cured product by kneading method, 1 mm thick thiourethane, 0.106 mmol per 100 g monomers, absorption peak at 476 nm): 476 nm; Maximum absorption wavelength (nm) ([1]; photochromic cured product by kneading method, 1 mm thick thiourethane, 0.106 mmol per 100 g monomers, absorption peak at 573 nm): 573 nm; Maximum absorption wavelength [1, 17]: 476 nm; Maximum absorption wavelength [1, 18]: 573 nm; Maximum absorption wavelength (nm) ([1]; photochromic laminate by coating method, 40 µm photochromic layer on thiourethane lens, 0.25 mmol compound per 100 g monomers, absorption band at 474 nm): 474 nm; Maximum absorption wavelength (nm) ([1]; photochromic laminate by coating method, 40 µm photochromic layer on thiourethane lens, 0.25 mmol compound per 100 g monomers, absorption band at 567 nm): 567 nm; Maximum absorption wavelength [1, 19]: 474 nm; Maximum absorption wavelength [1, 20]: 567 nm; 35°C color optical density (-) [2, 21]: 1.14 -; 35°C color optical density (-) [2, 22]: 0.57 -; A23 (-) [3, 23]: 1.69 -; A23 (-) [3, 24]: 0.85 -; 23°C color optical density (-) [3, 21]: 1.65 -; 23°C color optical density (-) [3, 22]: 0.83 -; A35/A23 *100 [4, 15]: 69%; A35/A23 *100 [4, 16]: 68%; A35/A23 *100 (%) [4, 23]: 69%; A35/A23 *100 (%) [4, 24]: 68%; A35/A23 *100 (%) [4, 10]: 70%; A35/A23 *100 ([4]; photochromic cured product, thickness 1 mm (kneading method)): 70%; Temperature change rate (%) ([4]; photochromic laminate by coating method, comparative compounds, corresponds to A35/A23×100): 69%; A35/A23 *100 ([4]; photochromic laminate prepared by coating method): 69%; Residual rate [5, 15]: 70%; Residual rate [5, 16]: 76%; Residual rate (%) [5, 23]: 70%; Residual rate (%) [5, 24]: 76%; Residual rate (%) ([5]; cured product by kneading method, 1 mm, absorption peak at 476 nm): 60%; Residual rate (%) ([5]; cured product by kneading method, 1 mm, absorption peak at 573 nm): 65%; Residual rate [5, 17]: 60%; Residual rate [5, 18]: 65%; Residual rate (%) [5, 21]: 53%; Residual rate (%) [5, 22]: 57%; Residual rate [5, 19]: 53%; Residual rate [5, 20]: 57%
